Test results: article PMC8620715, “Biological Activity of Triazolopyrimidine Copper(II) Complexes Modulated by an Auxiliary N-N-Chelating Heterocycle Ligands” (Molecules, 2021)
Read-outs that look alike come from different tables or passages of the source.

How the values were obtained:
[1] = tested on: E. coli 25922; assay: MIC by broth microdilution; type: cell-based, Escherichia coli; conditions: E. coli 25922, planktonic
Method: (§1) The antibacterial assays were carried out using two Gram-negative (Escherichia coli ATCC 25922, Pseudomonas aeruginosa ATCC 27853) and two Gram-positive (Staphylococcus aureus ATCC 25923, MRSA (meticillin-Resistant S. aureus) 388 (ATCC, American Type Culture Collection) bacteria.
The antimicrobial activity of the two complexes (1) and (2) was assessed using their minimum inhibitory concentration (MIC) by the broth microdilution method, as previously described by the Clinical and Laboratory Standard Institute (CLSI; M07-A9 document). A broth microdilution assay was performed in sterile 96-well plates using Muller-Hinton broth (Scharlau; MHB). The compounds solubilized in […] (1,000 μg/mL) were serially diluted in 90 μL MHB, in concentrations ranging between 500 and 0.97 μg/mL. Overnight cultures were used to prepare suspension in phosphate-buffered saline (pH 7.0) to match a 0.5 McFarland density. The bacterial suspensions were further diluted to 1:100 by adding 0.1 mL of bacterial suspension to 9.9 mL of MHB. A volume of 10 μL of this dilution was added to each well of columns 1–10, containing different concentrations of the tested compounds. […] Additionally, 10 μL of the diluted bacterial suspension was added in column 11 (the growth control). A volume of 100 μL MHB was added to the microtiter plates’ sterility control wells (column 12). After inoculation, the plates were incubated at 35 ± 2 °C for 18 h. Growth was measured as light absorbance (620 nm) in comparison to an uninoculated well (negative control). It was detected using a microtiter plate reader (Apollo LB 911ELISA (Berthold Technologies GmbH & Co. KG, Waltham, MA, USA)). The MIC of each compound was defined as the lowest concentration required to inhibit bacterial growth.

[2] = tested on: plasmid pRSII325; assay: Nuclease activity assay (gel electrophoresis); type: biochemical; conditions: 37 °C; for DNA cleavage in the presence of H2O2: 0.1 and 0.5 mM complex + 1 mM H2O2, 1 h; for DNA cleavage in the presence of ascorbate: 0.1 and 0.5 mM complex + 1 mM ascorbate; for DNA cleavage in the presence of ascorbate / DNA cleavage, complex alone: 1 h; for DNA cleavage, complex alone: 0.1 and 0.5 mM
Method: To investigate the DNA cleavage activity of the two Cu(II) complexes, plasmidial DNA was incubated with (1) and (2), both in the absence or in the presence of activating agents, such as H2O2 or ascorbate. Exposure of DNA to the Cu(II) complexes in the presence of H2O2 exploits the CuII/III redox couple, while in the presence of ascorbate, the CuI/II redox couple is exploited. The nuclease activity of copper(II) complexes (1) and (2) was tested on plasmid pRSII325, which is a 6835 bp (base pair) circular plasmid. Gel electrophoresis of purified pRSII325 identified two main bands belonging to the supercoiled (SC) plasmid, which migrates faster, and the nicked-circular (NC) plasmid, which migrates slower (Figure 12, lane 1).
The nuclease activity of the compounds was determined using plasmid […] DNA, which was a gift from Steven Haase (Addgene plasmid #35467, 6835 base pairs). The plasmid was amplified in Escherichia coli by transforming One Shot® TOP10 chemically competent E. coli (Invitrogen, Thermo Fisher Scientific). The plasmid was isolated from positive colonies using a PureLink™ HiPure Plasmid Miniprep Kit (Invitrogen, Thermo Fisher Scientific). Plasmid (200 ng/sample) was exposed to complexes (1) and (2) in the presence of 1 mM hydrogen peroxide (to exploit the Cu(II/III) redox couple) or 1 mM ascorbic acid (to exploit the Cu(I/II) redox couple). The DNA cleavage experiments were done in a 9/1 (v/v) ratio of 50 mM Tris-HCl, pH 8, and DMSO. The samples were incubated for 1 h at 37 °C before a bromophenol blue/xylene cyanol-based loading dye (Roth, Germany) was added. The samples were loaded onto a 1% (w/v) agarose gel containing 1 μg/mL EtBr in 1 × TBE (Tris–boric acid–EDTA) buffer. Electrophoresis was performed at 50 V for 60 min in 1 × TBE buffer. The images of the fluorescent ethidium bromide-stained gels were captured using a gel documentation system (Doc-Print II, VilberLourmat, France). The cleavage experiments were done three times, with similar results. One representative gel is shown.

[3] = tested on: P. aeruginosa 27853; assay: Biofilm formation on polystyrene (crystal violet), MBEC; type: cell-based, Pseudomonas aeruginosa; conditions: P. aeruginosa 27853, biofilm
Method: as §1
The method for assessment of biofilm formation on polystyrene microtiter plates was based on previously published protocols. The absorbance at 490 nm was measured with an Apollo LB 911ELISA (Berthold Technologies GmbH & Co. KG, Waltham, MA, USA) reader. The minimal biofilm-eradication concentration (MBEC) was defined as the lowest concentration of antibiotics required to eradicate the biofilm. All experiments were performed in triplicate.

[4] = tested on: B16 murine melanoma cell line; assay: MTT cell viability assay, B16 melanoma cells; type: cell-based, mouse; conditions: for TI (therapeutic index): BJ vs B16, where no toxicity at highest concentration, a value two times higher was used
Method: (§2) Human fibroblast cells (BJ—ATCC CRL-2522, USA) were grown in minimal essential medium (MEM) supplemented with 2 mM L-Glutamine, 10% fetal calf serum (FCS), 100 units/mL of penicillin, and 100 µg/mL of streptomycin at 37 °C in a humidified incubator under an atmosphere containing 5% CO2. Mouse melanoma cells (B16—ATCC CRL—6475, USA) were grown in DMEM (Dulbecco’s Modified Eagle Medium) supplemented with similar reagents as MEM. All cell cultivation media and reagents were purchased from Biochrom AG (Berlin, Germany) and Sigma-Aldrich (Darmstadt, Germany).
(§3) Cell viability was evaluated using 3-(4,5-dimethylthiazol-2-yl)-2,5-diphenyltetrazolium bromide (MTT) assay as described previously. First, the cells were seeded in 96-well plates (20000 cells/well) and cultured for 24 h in medium. […] The negative control was represented by cells cultivated in a medium without the investigated compounds. Following incubation, the medium was changed, and the MTT solution was added to each well to a final concentration of 1 mg/mL and incubated for an additional 4 h, at 37 °C. Finally, the medium was collected, and DMSO was used to dissolve the insoluble formazan product. The absorbance of the samples was recorded at 570 nm using a plate reader Mithras 940 (Berthold). The data were corrected for the background, and the percentage of viable cells was obtained using the equation:Cell viability = [(A570 of treated cells)/(A570 of untreated cells)] × 100%(1)
(§4) The half-maximal inhibitory concentration (IC50) was determined by fitting the data with a sigmoidal logistical equation using the software Origin 8.1 (Microcal Inc., Los Angeles, CA, USA).

[5] = tested on: BJ normal cell line (human fibroblast cells); assay: MTT cell viability assay, BJ normal cells; type: cell-based; conditions: for IC50 / reduction of BJ cell viability at the highest concentration: BJ
Method: as §2, §3, §4

Row | Compound | MIC [1] | DNA cleavage in the presence of H2O2 [2] | DNA cleavage in the presence of ascorbate [2] | DNA cleavage, complex alone [2] | MBEC [3] | TI (therapeutic index) ([4]; 24 h) | effect on viability of B16 cells ([4]; 24 h and 48 h) | TI (therapeutic index) ([4]; 48 h) | IC50 ([4]; B16, 24 h) | IC50 ([4]; B16, 24 h, read-out: IC50) | IC50 ([4]; B16, 48 h) | IC50 ([4]; B16, 48 h, read-out: IC50) | effect on viability of BJ cells ([5]; range of tested concentrations, 24 h and 48 h) | B16 cell viability decreased to ([4]; B16) | IC50 ([5]; 24 h) | reduction of BJ cell viability at the highest concentration ([5]; 24 h) | IC50 ([5]; 24 h, read-out: IC50) | IC50 ([5]; 48 h) | reduction of BJ cell viability at the highest concentration ([5]; 48 h) | IC50 ([5]; 48 h, read-out: IC50)
1 | Cc1cc(C)n2ncnc2n1.Cc1cc(C)n2ncnc2n1.Cc1cc(C)n2ncnc2n1.O.[Cu+2].[O-][Cl+3]([O-])([O-])[O-].[O-][Cl+3]([O-])([O-])[O-].c1ccc(-c2ccccn2)nc1 [Complex (1), [Cu(bpy)(dmtp)2(OH2)](ClO4)2·dmtp] | 710 µM | led to DNA degradation | led to DNA degradation | caused plasmid relaxation to the NC form | 0.71 mM | 8.68 | reduced the viability of B16 cells | 12.82 | 5.76 µg/mL | 6.5 µM | 3.90 µg/mL | 4.42 µM | not affected | – | – | – | – | – | – | –
2 | Cc1cc(C)n2ncnc2n1.Cc1cc(C)n2ncnc2n1.Cc1cc(C)n2ncnc2n1.O.[Cu+2].[O-][Cl+3]([O-])([O-])[O-].[O-][Cl+3]([O-])([O-])[O-].c1cnc2c(c1)ccc1cccnc12 [Complex (2), [Cu(phen)(dmtp)2(OH2)](ClO4)2·dmtp] | 340 µM | H2O2 strongly enhancing the nuclease activity | a higher concentration of (2) was needed for full nuclease activity | caused plasmid relaxation to the NC form | 0.69 mM | 1.98 | – | 1.08 | 6.88 µg/mL | 7.6 µM | 4.15 µg/mL | 4.58 µM | – | 5% | 13.61 µg/mL | up to 45% | 15 µM | 4.50 µg/mL | up to 10% | 4.97 µM
